According to US6818407B2, “Anti-endotoxic antimicrobial cationic peptides and methods of use therfor” (priority 1998, dated 2004):
Ends that are not written are not given here.

What was measured:
[1] = tested on: Pseudomonas aeruginosa outer membrane barrier altered (Z61); assay type: cell-based; details: Mueller Hinton Broth
Description: (§1) The biological activity of the peptides can be determined by standard methods known to those of skill in the art, such as Aminimal inhibitory concentration (MIC)≅ assay described in the present examples, whereby the lowest concentration at which no change in OD is observed for a given period of time is recorded as MIC. Alternatively, Afractional inhibitory concentration (FIC)≅ is also useful for determination of synergy between the peptides of the invention, or the peptides in combination with known antibiotics. FICs are performed by checkerboard titrations of peptides in one dimension of a microtiter plate, and of antibiotics in the other dimension, for example. The FIC is calculated by looking at the impact of one antibiotic on the MIC of the other and vice versa. […] Preferably, an FIC of less than 0.5 is obtained for synergism. As used herein, FIC can be determined as follows: [formula]
(§2) These peptides varied in activity (Table 11), however, the C-terminally capped pleurocidin especially and its N-terminally capped lysine derivative had much better activities against a variety of bacteria including Vibrio anguillarum (Va), Aeromonas salmonicida (As), Staphylococcus epidermidis (C621), Salmonella typhimurium wild type (C587) and phoP phoQ mutant (C610), and Pseudomonas aeruginosa wild type (K799) and outer membrane barrier altered (Z61). The antimicrobial peptide CEME, a fusion peptide made from portions of an insect defensin ceropin A and the bee venom peptide melittin (Piers and Hancock, Mol. Microbiol., 12:951-8, 1994), as well as the known antibiotics polymyxin B and gentamicin were used as controls. Replacing the pleurocidin N-terminus with the dermaseptin N-terminus had no effect. Replacing pleurocidin N-terminus with the ceratoxin N-terminus reduced activity. […] Amidating the C-terminus improved antimicrobial activity. Replacing the pleurocidin C-terminus with the misgurin C-terminus had no effect.
(§3) Bacteria included Vibrio anguillarum (Va), Aeromonas salmonicida (As), Staphylococcus epidermidis (C621), Salmonella typhimurium wild type (C587) and phoP phoQ mutant (C6 10), and Pseudomonas aeruginosa wild type (K799) and outer membrane barrier altered (Z61).

[2] = tested on: Pseudomonas aeruginosa wild type (K799); assay type: cell-based; details: Mueller Hinton Broth
Description: as §1, §2, §3

[3] = tested on: Aeromonas salmonicida (As); assay type: cell-based; details: Mueller Hinton Broth
Description: as §1, §2, §3

[4] = tested on: Salmonella typhimurium phoP phoQ mutant (C610); assay type: cell-based; details: Mueller Hinton Broth
Description: as §1, §2, §3

[5] = tested on: Staphylococcus epidermidis (C621); assay type: cell-based; details: Mueller Hinton Broth
Description: as §1, §2, §3

[6] = tested on: Salmonella typhimurium wild type (C587); assay type: cell-based; details: Mueller Hinton Broth
Description: as §1, §2, §3

Vibrio anguillarum (Va) = assay type: cell-based; details: Mueller Hinton Broth
Description: as §1, §2, §3

S. aureus = assay: MIC, broth microdilution assay in polypropylene microtiter trays; assay type: cell-based; details: average of three separate experiments
Description: as §1
(§4) A method which employed polypropylene microtiter trays in a broth microdilution assay was developed.

S. aureus K147 = assay: as above; assay type: cell-based; details: average of three separate experiments
Description: as §1, §4

E. coli [7] = assay: as above; assay type: cell-based; details: average of three separate experiments
Description: as §1, §4

P. aeruginosa = assay: as above; assay type: cell-based; details: average of three separate experiments
Description: as §1, §4

[8] = tested on: mutant (Nal B, H744) of P. aeruginosa; assay: microbe, parasite or virus in culture; assay type: cell-based; details: for (B) MIC of Cipro when combined with peptide: ciprofloxacin with peptide at concentration (A); for (B) MIC of Cipro when combined with peptide / FIC index / (A) Peptide doses together with Cipro: Nal B, H744; for FIC index: peptide + ciprofloxacin; for MIC A MIC of Peptides: peptide alone, P. aeruginosa mutant Nal B, H744 (Table 5); for (A) Peptide doses together with Cipro: peptide concentration in combination with ciprofloxacin
Description: as §1
(§5) To test whether the peptides of the invention synergize with various antibiotics, the following method was employed. Fractional Inhibitory Concentration (FIC) was used to determine synergy of peptides combined with antibiotics (e.g., carbenicillin/ciprofloxacin) against Pseudomonas aeruginosa. The following methodology was followed:
(§6) (1) Determination of MIC of cationic peptides (MIC A):
(§7) 100 μl Mueller Hinton broth (MHB) was added per well
(§8) 12.5 μl of 10× test concentration peptide was added per well to get final peptide concentration of e.g., 128, 64, 32, . . . 0.025 μg/ml from row 1 to 11;
(§9) 10 μl of 10^−4 dilution of overnight bacterial culture was added per well.
(§10) (2) Determination of MIC of Carbenicillin/Ciprofloxacin (MIC B):
(§11) 100 μl MHB was added per well;
(§12) 100 μl of 2× test concentration of antibiotic was added in the first well of the row, and doubling dilutions performed across the plate from column 1 to 11;
(§13) (3) Determination of MIC of antibiotics (B) when combined with peptides at concentration A:
(§14) 100 μl Carbenicillin (512 μg/ml) or Ciprofloxacin (8 μg/ml) was added in each well of column 1; doubling dilutions were performed across the plate;
(§15) 100 μl of the peptide was added in all wells of row 1, mixed, and 100 μl withdrawn and added to row 2, etc., creating a checkerboard titration.
(§16) 10 μl of 10^−4 dilution of overnight culture was added per well;
(§17) plates were incubated at 37EC for 18-24 hours. Combination MIC values A and B were taken as the lowest concentration of drug that reduced bacterial growth by more than 50% in any given column.
(§18) (4) FIC index=FICA+FICB=(A)/MIC A+(B)/MIC B. An FIC index of approximately 0.5 or less indicates synergy; 1.0 reflects additivity; and >1.0 indicates antagonism.

[9] = tested on: P. aeruginosa efflux mutant (Nal B, H744); assay: microbe, parasite or virus in culture; assay type: cell-based; details: for (B) MIC of Nal when combined with peptide: nalidixic acid with peptide at concentration (A), unit from method; for (B) MIC of Nal when combined with peptide / FIC index / (A) Peptide doses together with Nal: efflux mutant Nal B, H744; for FIC index: peptide + nalidixic acid; for MIC A MIC of Peptides: peptide alone, P. aeruginosa efflux mutant Nal B, H744 (Table 6); for (A) Peptide doses together with Nal: peptide concentration in combination with nalidixic acid
Description: as §1, §5, §6, §7, §8, §9, §10, §11, §12, §13, §14, §15, §16, §17, §18

[10] = tested on: β-lactamase derepressed mutant (H547) of P. aeruginosa; assay: microbe, parasite or virus in culture; assay type: cell-based; details: P. aeruginosa H547; for (B) MIC of Carb when combined with peptide: Carbenicillin with peptide at concentration (A); for FIC index: peptide + Carbenicillin, about 0.5 or less synergy, 1.0 additivity, >1.0 antagonism; for MIC A MIC of Peptides: peptide alone; for (A) Peptide doses together with Carb: peptide concentration in combination with Carbenicillin
Description: as §1, §5, §6, §7, §8, §9, §10, §11, §12, §13, §14, §15, §16, §17, §18

[11] = tested on: P. aeruginosa gyrase mutant (Nal A, H374); assay type: cell-based; details: for (B) MIC of Nal when combined with peptide: nalidixic acid with peptide at concentration (A), unit from method; for (B) MIC of Nal when combined with peptide / FIC index / (A) Peptide doses together with Nal: Nal A; for FIC index: peptide + nalidixic acid; for MIC A MIC of Peptides: peptide alone, P. aeruginosa gyrase mutant Nal A; for (A) Peptide doses together with Nal: peptide concentration in combination with nalidixic acid
Description: as §1, §5, §6, §7, §8, §9, §10, §11, §12, §13, §14, §15, §16, §17, §18

P. aeruginosa (H103) = assay: Synergy study (checkerboard titration) with hen white lysozyme; assay type: cell-based; details: for Lowest [CP] showing synergy: cationic peptide concentration, combined with lysozyme; for Lowest [Lyso] showing synergy: lysozyme concentration, combined with the peptide
Description: as §1

E. coli [12] = assay: as above; assay type: cell-based; details: for Lowest [CP] showing synergy: cationic peptide concentration, combined with lysozyme; for Lowest [Lyso] showing synergy: lysozyme concentration, combined with the peptide
Description: as §1

Salmonella typhi = assay: as above; assay type: cell-based
Description: as §1

[13] = tested on: Pseudomonas aeruginosa strain M2; assay: Protection of neutropenic CD-1 mice challenged with Pseudomonas aeruginosa; assay type: in vivo; set-up: Survival post bacterial challenge, surviving mice: reference not given here; details: for Survival (%) post bacterial challenge: PBS 8
Description: CD-1 mice were induced to be neutropenic via 3 intraperitoneal injections of cyclophosphamide ([…]) every another day. Immediately after the third administration of cyclophosphamide, the mice were challenged by intraperitoneal injection of Pseudomonas aeruginosa strain M2 (200-300 organisms/mouse). Cationic peptides (200 µg per mouse=8 mg/kg) in 100 µl buffered citrate were injected intraperitoneally at 30 min (single dose) or 30 min and 16 hrs (double dose) post bacterial challenge, respectively. The data were the average values of 2 individual experiments. PBS was used as a control. […] In general single dose protection studies gave better protection than double dose experiments.

Substance	MIC Z61 [1]	MIC K799 [2]	MIC As [3]	MIC C610 [4]	MIC C621 [5]	MIC C587 [6]	MIC Va (Vibrio anguillarum (Va))	MIC S. aureus (S. aureus)	MIC S. aureus K147 (S. aureus K147)	MIC E. coli (E. coli [7])	MIC P. aeruginosa (P. aeruginosa)	(B) MIC of Cipro when combined with peptide [8]	FIC index [8]	MIC A MIC of Peptides [8]	(A) Peptide doses together with Cipro [8]	(B) MIC of Nal when combined with peptide [9]	FIC index [9]	MIC A MIC of Peptides [9]	(A) Peptide doses together with Nal [9]	(B) MIC of Carb when combined with peptide [10]	other results
KGWGSFFKKAAHVGKHVGKAALTHYL [Peptide P-1]	8 µg/mL	32 µg/mL	2 µg/mL	<0.5 µg/mL	64 µg/mL	16 µg/mL	16 µg/mL														
KGWGSFFKKAAHVGKHVGKAALTHYL-NH2 [Peptide P-1-CN]	2 µg/mL	8 µg/mL	1 µg/mL	<0.5 µg/mL	2 µg/mL	2 µg/mL	2 µg/mL														
KKWKKFIKKIGIGAVLTTPGAKK [CPα3]								>64 µg/mL	>64 µg/mL	4 µg/mL	≧64 μg/ml	.125 µg/mL	.75	4 µg/mL	1 µg/mL	400 µg/mL	0.50	4 µg/mL	1 µg/mL	32 µg/mL	FIC index [10]: 0.75; MIC A MIC of Peptides [10]: 16 µg/mL; (A) Peptide doses together with Carb [10]: 4 µg/mL; (B) MIC of Nal when combined with peptide [11]: 800 µg/mL; FIC index [11]: 0.50; MIC A MIC of Peptides [11]: 8 µg/mL; (A) Peptide doses together with Nal [11]: 1 µg/mL; FIC for combination of cationic peptide and lysozyme (P. aeruginosa (H103)): 0.08; Lowest [CP] showing synergy (P. aeruginosa (H103)): 1.3 µg/mL; Lowest [Lyso] showing synergy (P. aeruginosa (H103)): 7.8 µg/mL; FIC for combination of cationic peptide and lysozyme (E. coli [12]): 0.31; Lowest [CP] showing synergy (E. coli [12]): 0.65 µg/mL; Lowest [Lyso] showing synergy (E. coli [12]): 62.5 µg/mL; FIC for combination of cationic peptide and lysozyme (Salmonella typhi): Confluent
KWKSFIKKLTSAAKKVTTAAKPLTK [CPα1]								>64 µg/mL	>64 µg/mL	1.5 µg/mL	≧64 μg/ml	.125 µg/mL	.63	8 µg/mL	1 µg/mL	400 µg/mL	0.38	8 µg/mL	1 µg/mL	32 µg/mL	FIC index [10]: 0.75; MIC A MIC of Peptides [10]: 16 µg/mL; (A) Peptide doses together with Carb [10]: 4 µg/mL; (B) MIC of Nal when combined with peptide [11]: 800 µg/mL; FIC index [11]: 0.38; MIC A MIC of Peptides [11]: 8 µg/mL; (A) Peptide doses together with Nal [11]: 1 µg/mL; FIC for combination of cationic peptide and lysozyme (P. aeruginosa (H103)): 0.28; Lowest [CP] showing synergy (P. aeruginosa (H103)): 5.21 µg/mL; Lowest [Lyso] showing synergy (P. aeruginosa (H103)): 7.8 µg/mL; FIC for combination of cationic peptide and lysozyme (E. coli [12]): 0.31; Lowest [CP] showing synergy (E. coli [12]): 0.65 µg/mL; Lowest [Lyso] showing synergy (E. coli [12]): 7.8 µg/mL; FIC for combination of cationic peptide and lysozyme (Salmonella typhi): 0.63; Lowest [CP] showing synergy (Salmonella typhi; cationic peptide concentration, combined with lysozyme): 41.7 µg/mL; Lowest [Lyso] showing synergy (Salmonella typhi; lysozyme concentration, combined with the peptide): 125 µg/mL
KWKSFIKKLTSAAKKVVTTAKPLISS (H-KWKSFIKKLTSAAKKVVTTAKPLISS-OH) [CP26, reference compound]																					Survival post bacterial challenge, surviving mice ([13]; single dose (200 μg per mouse i.p. at 30 min), 16 hr): 8; Survival post bacterial challenge, surviving mice ([13]; single dose, 24 hr): 8; Survival post bacterial challenge, surviving mice ([13]; single dose, 41 hr): 6; Survival post bacterial challenge, surviving mice ([13]; single dose, 48 hr): 4; Survival post bacterial challenge, surviving mice ([13]; single dose, 64 hr): 3; Survival (%) post bacterial challenge ([13]; single dose, 64 hr): 37%; Survival post bacterial challenge, surviving mice ([13]; single dose, 72 hr): 3; Survival (%) post bacterial challenge ([13]; single dose, 72 hr): 37%; Survival post bacterial challenge, surviving mice ([13]; single dose, 96 hr): 3; Survival (%) post bacterial challenge ([13]; single dose, 96 hr): 37%
RQRVEELSKFSKKGAAARRRK [Peptide M-0, reference compound]	>64 µg/mL	>64 µg/mL	>64 µg/mL	>64 µg/mL	>64 µg/mL	>64 µg/mL	>64 µg/mL														
